Results on ten compounds are retold here after ChEMBL document CHEMBL1201862, “PubChem BioAssay data set” (2004).

Common to all, as to assay: NCI anticancer screen, dose series, 48 h
In experiment [1] the test system is A549.
Experiment [2] deals with CAKI-1.
The test system of experiment [3] is DLD-1.
In experiment [4] the test system is HCC 2998.
In experiment [5] the test system is HCT-116.
Experiment [6] has as its system HL-60.
Experiment [7] relates to HOP-92.
The subject of experiment [8] is Hs-578T.
Experiment [9] relates to IGROV-1.
In experiment [10] the test system is M14.
In experiment [11] the test system is MDA-N.
The subject of experiment [12] is Malme-3M.
Experiment [13] concerns NCI-H226.
The subject of experiment [14] is NCI-H23.
Experiment [15] relates to NCI-H522.
Experiment [16] has as its system SF-539.
The test system of experiment [17] is SK-MEL-28.
Experiment [18] deals with SK-OV-3.
Experiment [19] has as its system SNB-19.
The test system of experiment [20] is SR.

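Values below derive from 48-hour exposures of cells grown in 96-well plates, with endpoints linearly interpolated between the two concentrations bracketing the appropriate inhibition level. GI50 is the concentration that inhibits growth by half.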 Activity calls are given as the source filed them. No stated cut-off is given here; in the data, active = GI50 up to about 1.1 µM and inactive = higher.

For `O=C(c1ccc(F)cc1)c1cccc(C(=O)c2ccc(F)cc2)n1`, the GI50 was 69.2 µM (inactive) in experiment [1]; 28 µM (inactive) in experiment [2]; > 100 µM (inactive) in experiment [3]; > 100 µM (inactive) in [4]; 22.9 µM (inactive) in experiment [5]; > 100 µM (inactive) in experiment [6]. Further, the GI50 was 15.8 µM (inactive) in experiment [7]; 25.6 µM (inactive) in experiment [8]; 24.9 µM (inactive) in experiment [9]; 62.2 µM (inactive) in [10]; > 100 µM (inactive) in [11]; > 77.6 µM (inactive) in [12]. Further, the GI50 in experiment [13] was > 45.4 µM (inactive); in experiment [14], 20.2 µM (inactive); in experiment [15], 20.3 µM (inactive); in experiment [16], 30.8 µM (inactive); in experiment [17], > 100 µM (inactive); in experiment [18], 1.53 µM (inactive). The GI50 in experiment [19] is 25.2 µM (inactive); in [20], > 100 µM (inactive).
As to `C/C(=N\NS(=O)(=O)c1ccc(C)cc1)C(CN(C)C)C(c1ccccc1)c1c(O)c2ccccc2oc1=O` (stereo not drawn), the GI50 in experiment [1] is > 100 µM (inactive); in [2] it was > 100 µM (inactive); in experiment [3], > 100 µM (inactive); in experiment [5], > 100 µM (inactive); in experiment [6], > 100 µM (inactive); in [7], 60 µM (inactive). Also, the GI50 in experiment [8], in experiment [9], in [10], in [11], in experiment [12] and in experiment [13] was > 100 µM (inactive) in each case. The GI50 in [14] is > 100 µM (inactive); in experiment [15], > 100 µM (inactive); in experiment [16], > 100 µM (inactive); in [17], > 100 µM (inactive); in experiment [18] it was 99.1 µM (inactive); in experiment [19], > 100 µM (inactive). Also, in experiment [20], the GI50 was > 60 µM (inactive).
Take `O=C1C(Br)=CC2(C=C1Br)CCNC1=C2C2=NCCc3c[nH]c(c32)C1=O`: the GI50 is 0.951 µM (active) in [1]; 0.134 µM (active) in [2]; 0.0182 µM (active) in [3]; 0.506 µM (active) in [4]; 0.0233 µM (active) in [5]; 0.0129 µM (active) in experiment [6]. The GI50 in experiment [7] was 0.0817 µM (active); in experiment [8], 0.445 µM (active); in experiment [9], 0.153 µM (active); in [10], 0.0703 µM (active); in experiment [11], 0.102 µM (active); in [12], 0.0415 µM (active). Besides, the GI50 in experiment [13] is 1.27 µM (inactive); in experiment [14], 0.119 µM (active); in [15], 0.0176 µM (active); in experiment [16] it was 0.246 µM (active); in [17], 0.163 µM (active); in [18] it was 1.9 µM (inactive). Also, the GI50 in [19] is 1.41 µM (inactive); in experiment [20] it was 0.0431 µM (active).
With `Cc1n(CC(C)C)c2c([n+]1C)C(=O)c1ccccc1C2=O`, the GI50 in experiment [1] is 0.114 µM (active); in experiment [2] it was 1.17 µM (inactive); in experiment [3], 0.0813 µM (active); in experiment [4], 0.108 µM (active); in experiment [5], 0.0494 µM (active); in [6], 0.0405 µM (active). For the same compound, the GI50 in experiment [7] is 0.641 µM (active); in experiment [8], 0.565 µM (active); in experiment [9] it was 0.0224 µM (active); in experiment [10], 0.27 µM (active); in experiment [11], 0.166 µM (active); in [12] it was 0.0957 µM (active). In addition, the GI50 in experiment [13] is 0.311 µM (active); in [14] it was 0.0374 µM (active); in experiment [15], 0.0176 µM (active); in experiment [16], 0.0479 µM (active); in [17] it was 1.06 µM (active); in experiment [18] it was 0.35 µM (active). In addition, the values for the GI50 in experiment [19] and in experiment [20] were 0.0716 µM (active) and 0.301 µM (active), respectively.
In the case of `COc1cc(/C=C(\OC(C)=O)c2ccc3c(c2)OCO3)cc(OC)c1OC`, the GI50 was 26.7 µM (inactive) in [1]; 22.1 µM (inactive) in experiment [2]; 18.6 µM (inactive) in experiment [3]; > 10 µM (inactive) in experiment [4]; 18.2 µM (inactive) in [5]; 27.4 µM (inactive) in experiment [6]. The GI50 is 15.6 µM (inactive) in experiment [7]; 10.9 µM (inactive) in [9]; 16.3 µM (inactive) in experiment [10]; 23 µM (inactive) in experiment [12]; 11.5 µM (inactive) in [13]; 16.4 µM (inactive) in [14]. Further, the GI50 in experiment [15] is 13.5 µM (inactive); in experiment [16], 18 µM (inactive); in experiment [17] it was 17.7 µM (inactive); in experiment [18], 17.5 µM (inactive); in [19] it was 28.2 µM (inactive); in experiment [20], 8.2 µM (inactive).
Turning to `Oc1ccc(Cn2c(-c3ccc(O)cc3)nc3ccccc32)cc1`, the GI50 in experiment [1] is > 100 µM (inactive); in experiment [2], > 100 µM (inactive); in [3], > 100 µM (inactive); in experiment [4], > 100 µM (inactive); in experiment [5] it was > 100 µM (inactive); in [6], > 31.6 µM (inactive). Also, the GI50 in experiment [7], in [8], in experiment [9], in experiment [10], in experiment [11] and in experiment [12] was > 100 µM (inactive) in each case. Besides, the GI50 in experiment [13], in experiment [14], in [15], in experiment [16], in experiment [17] and in [18] was > 100 µM (inactive) throughout. Further, the figures for the GI50 in [19] and in experiment [20] were > 100 µM (inactive) and > 31.6 µM (inactive), respectively.
Consider `CC1CCC(=O)NCCCCC(=O)N1` (stereo not drawn), for which the GI50 in experiment [1], in experiment [2], in experiment [3], in experiment [4], in experiment [5] and in experiment [6] was > 100 µM (inactive) throughout. In addition, the GI50 in experiment [7], in experiment [9], in experiment [10], in experiment [12], in experiment [13] and in experiment [14] was > 100 µM (inactive) in each case. The GI50 in experiment [15], in experiment [16], in experiment [17], in [18], in experiment [19] and in experiment [20] was > 100 µM (inactive) throughout.
Take `O=C(Nc1ccc([N+](=O)[O-])cc1)C1C(=O)C(=O)N(c2ccc([N+](=O)[O-])cc2)C1=O` (stereo not drawn): the GI50 in experiment [1] is > 100 µM (inactive); in experiment [2] it was 74.6 µM (inactive); in [3] it was > 100 µM (inactive); in experiment [4], > 100 µM (inactive); in [5], 80.2 µM (inactive); in experiment [6], > 100 µM (inactive). Moreover, the GI50 in experiment [7] was > 100 µM (inactive); in experiment [9] it was > 100 µM (inactive); in experiment [10], 16.2 µM (inactive); in [12] it was > 100 µM (inactive); in experiment [13], > 100 µM (inactive); in [14], > 100 µM (inactive). In addition, the GI50 in experiment [15] is 55.8 µM (inactive); in experiment [16], 94.8 µM (inactive); in experiment [17] it was > 100 µM (inactive); in experiment [18], > 100 µM (inactive); in experiment [19] it was > 100 µM (inactive); in experiment [20], 59 µM (inactive).
Take `COC(=O)C[C@](O)(CCCC(C)(C)O)C(=O)O[C@@H]1C(OC)=C[C@]23CCCN2CCc2cc4c(cc2[C@H]13)OCO4` [OMACETAXINE MEPESUCCINATE]: the GI50 in experiment [2] is 0.203 µM (active); in [3], 0.0231 µM (active); in experiment [4] it was 0.0583 µM (active); in experiment [6], 0.0325 µM (active); in [7], 0.0869 µM (active); in [8], 1.07 µM (active). The GI50 is 0.129 µM (active) in experiment [9]; 1.21 µM (inactive) in [10]; 2.42 µM (inactive) in experiment [11]; 0.0568 µM (active) in experiment [12]; 0.09 µM (active) in experiment [13]; 0.0528 µM (active) in experiment [14]. The GI50 in [16] was 0.056 µM (active); in [17], 0.111 µM (active); in experiment [18], 0.122 µM (active); in experiment [19], 0.0706 µM (active); in [20], 0.0327 µM (active).
Turning to `Cc1c(-c2coc(-c3ccccc3)n2)c(=O)n(-c2ccccc2)n1C`, the GI50 in [1] is > 100 µM (inactive); in [2] it was 0.184 µM (active); in [3], > 100 µM (inactive); in experiment [4], 0.1 µM (active); in experiment [5], > 100 µM (inactive); in [6], 76.7 µM (inactive). Further, the GI50 in experiment [7] is > 100 µM (inactive); in experiment [9], > 100 µM (inactive); in experiment [10], > 100 µM (inactive); in experiment [12], 98.6 µM (inactive); in experiment [13], 94.4 µM (inactive); in [14], > 100 µM (inactive). In addition, the GI50 in experiment [15] is 29.1 µM (inactive); in [16], > 100 µM (inactive); in experiment [17], > 100 µM (inactive); in experiment [18] it was > 100 µM (inactive); in experiment [19] it was > 100 µM (inactive); in [20], 45.5 µM (inactive).
